From patent US10738028B2, “Spiro three-membered ring, spiro five-membered ring peptide deformylase inhibitor and use thereof in antibacteria and anti-tumor” (priority 2016, dated 2020)

Assays:
Type in all cases: cell-based
[1] = tested on: methicillin-sensitive Staphylococcus aureus (MSSA); experiment: MIC, two-fold agar dilution (CLSI), clinical isolates
Procedure, shortened: (§1)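 MIC values come from two-fold agar dilution run per CLSI antimicrobial susceptibility testing procedure.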

[2] = tested on: methicillin-resistant Staphylococcus epidermidis (MRSE); experiment: as above
Procedure, shortened: as §1

[3] = tested on: Streptococcus pneoumoniae (SPN); experiment: as above
Procedure, shortened: as §1

[4] = tested on: methicillin-resistant Staphylococcus aureus (MRSA); experiment: as above
Procedure, shortened: as §1

[5] = tested on: methicillin-sensitive Staphylococcus epidermidis (MSSE); experiment: as above
Procedure, shortened: as §1

[6] = tested on: Enterococcus faecalis (EFA); experiment: as above
Procedure, shortened: as §1

[7] = tested on: Moraxella catarrhalis (BCA); experiment: as above
Procedure, shortened: as §1

[8] = tested on: Escherichia coli (including ESBLs, non-ESBLs); experiment: as above
Procedure, shortened: as §1

[9] = tested on: Enterococcus faecium (EFM); experiment: as above
Procedure, shortened: as §1

[10] = tested on: HCT-116 colorectal cancer cell line; experiment: CCK-8 proliferation inhibition; conditions: concentration of 30 μM; 72 hours; CCK-8; 30 µM
Procedure, shortened: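 Growth inhibition is read by CCK-8 (1:10 dilution) after 72 h of compound exposure. HCT-116 cells grow in McCoy's 5A containing 10% newborn bovine serum at 2000 cells/well, with 1‰ DMSO as vehicle control.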

[11] = tested on: MGC-803 gastric cancer cell line; experiment: CCK-8 proliferation inhibition; conditions: concentration of 30 μM
Excerpt: (§2) 2. The present invention adopts the CCK-8 method to determine the proliferation inhibition effect of the spiro three-membered ring, spiro five-membered ring peptide deformylase inhibitor as described in Examples 1-80 against colorectal cancer cells, lung cancer cells, gastric cancer cells, liver cancer cells, and the like. […] The compound having the best activity synthesized in Example 64 was further tested for its inhibitory activity against other tumor cells including T cell leukemia, acute myeloid leukemia, cervical cancer, breast cancer, prostate cancer and osteosarcoma, and the like (see Table 7).
(§3) (1) HCT-116 colorectal cancer cell line, A549 lung cancer cell line, MGC-803 gastric cancer cell line, BEL-7402 liver cancer cell line, Jurkat T cell leukemia cell line, HL60 acute myeloid leukemia cell line, Hela cervical cancer cell line, MCF-7 breast cancer cell line, PC3 prostate cancer cell line and SAOS-2 osteosarcoma cell line were made into single cell suspension, 180 μL of which was inoculated into 96-well culture plate, which was cultured overnight in CO2 incubator (37° C., 5% CO2, 95% air).
(§4) (2) Each of the spiro three-membered ring, spiro five membered ring peptide deformylase inhibitors was dissolved in DMSO, and was further formulated into drug solution with required different final concentration using corresponding cell culture medium. The drug solutions were added to the above cells respectively (20 μL/well), with the control group added with 1‰ DMSO, and cultured in a CO2 incubator for 72 hours.
(§5) (3) After incubation for 72 hours, the culture solution was decanted, and 100 μL of 1:10 diluted CCK-8 solution was added.
(§6) Wherein, in step (1), the concentration of the single cell suspension was 2000 cells/well.
(§7) Wherein, in step (2), HCT-116 cells were cultured in McCoy's 5A medium (containing 10% newborn bovine serum, 1% double antibody); A549 and PC3 cells were cultured in F12 medium (containing 10% newborn bovine serum, 1% double antibody); MGC-803, BEL-7402, SAOS-2, Jurkat and HL60 cells were cultured in 1640 medium (containing 10% newborn bovine serum, 1% double antibody); and MCF-7 and Hela cells were cultured in DMEM high glucose medium (containing 10% newborn bovine serum, 1% double antibody).

[12] = tested on: BEL-7402 liver cancer cell line; experiment: CCK-8 proliferation inhibition; conditions: concentration of 30 μM, 72 hours, 30 µM
Excerpt: as §2, §3, §4, §5, §6, §7

[13] = tested on: A549 lung cancer cell line; experiment: CCK-8 proliferation inhibition; conditions: Homo sapiens, A549, 72 h, concentration of 30 μM
Excerpt: as §2, §3, §4, §5, §6, §7

O=CN(O)C[C@@H](CC1CCCC1)C(=O)N1CC2(CC2)C[C@H]1C(=O)Nc1nccs1 (stereo in doubt) [Example 40, (S)-5-((S)-3-cyclopentyl-2-((N-hydroxyformamido)methyl)propionyl)-N-(thiazol-2-yl)-5-spiro[2.4]heptane-6-carboxamide]
Anti-bacterial activity (MIC), strain MSSA 15-3 ([1]; clinical isolate MSSA 15-3): 0.5 µg/mL
Anti-bacterial activity (MIC), strain MSSA 15-4 ([1]; clinical isolate MSSA 15-4): 0.5 µg/mL
Anti-bacterial activity (MIC), strain MSSA 15-5 ([1]; clinical isolate MSSA 15-5): 0.5 µg/mL
Anti-bacterial activity (MIC), strain MSSA 15-6 ([1]; clinical isolate MSSA 15-6): 0.5 µg/mL
Anti-bacterial activity (MIC), strain MRSE 15-1 ([2]; clinical isolate MRSE 15-1): 0.5 µg/mL
Anti-bacterial activity (MIC), strain MRSE 15-2 ([2]; clinical isolate MRSE 15-2): 0.5 µg/mL
Anti-bacterial activity (MIC), strain MRSE 15-3 ([2]; clinical isolate MRSE 15-3): 0.5 µg/mL
Anti-bacterial activity (MIC), strain MRSE 15-7 ([2]; clinical isolate MRSE 15-7): 0.5 µg/mL
Anti-bacterial activity (MIC), strain SPN 16-2 ([3]; clinical isolate SPN 16-2): 0.25 µg/mL
Anti-bacterial activity (MIC), strain SPN 16-4 ([3]; clinical isolate SPN 16-4): 4 µg/mL
Anti-bacterial activity (MIC), strain MRSA 15-1 ([4]; clinical isolate MRSA 15-1): 0.5 µg/mL
Anti-bacterial activity (MIC), strain MRSA 15-2 ([4]; clinical isolate MRSA 15-2): 0.5 µg/mL
Anti-bacterial activity (MIC), strain MRSA 15-3 ([4]; clinical isolate MRSA 15-3): 0.25 µg/mL
Anti-bacterial activity (MIC), strain MRSA 15-4 ([4]; clinical isolate MRSA 15-4): 0.25 µg/mL
Anti-bacterial activity (MIC), strain MSSE 15-3 ([5]; clinical isolate MSSE 15-3): 0.5 µg/mL
Anti-bacterial activity (MIC), strain MSSE 15-4 ([5]; clinical isolate MSSE 15-4): 0.5 µg/mL
Anti-bacterial activity (MIC), strain MSSE 15-5 ([5]; clinical isolate MSSE 15-5): 0.25 µg/mL
Anti-bacterial activity (MIC), strain MSSE 15-6 ([5]; clinical isolate MSSE 15-6): 0.25 µg/mL
Anti-bacterial activity (MIC), strain EFA 15-1 ([6]; clinical isolate EFA 15-1): 4 µg/mL
Anti-bacterial activity (MIC), strain EFA 15-2 ([6]; clinical isolate EFA 15-2): 4 µg/mL
Anti-bacterial activity (MIC), strain EFA 15-3 ([6]; clinical isolate EFA 15-3): 4 µg/mL
Anti-bacterial activity (MIC), strain EFA 15-4 ([6]; clinical isolate EFA 15-4): 4 µg/mL
Anti-bacterial activity (MIC), strain EFA 15-5 ([6]; clinical isolate EFA 15-5): 4 µg/mL
Anti-bacterial activity (MIC), strain EFA 15-6 ([6]; clinical isolate EFA 15-6): 4 µg/mL
Anti-bacterial activity (MIC), strain EFA 15-9 ([6]; clinical isolate EFA 15-9): 4 µg/mL
Anti-bacterial activity (MIC), strain BCA 14-1 ([7]; clinical isolate BCA 14-1): 1 µg/mL
Anti-bacterial activity (MIC), strain BCA 14-4 ([7]; clinical isolate BCA 14-4): 1 µg/mL
Anti-bacterial activity (MIC), strain BCA 14-5 ([7]; clinical isolate BCA 14-5): 0.5 µg/mL
Anti-bacterial activity (MIC), strain BCA 14-6 ([7]; clinical isolate BCA 14-6): 0.5 µg/mL
Anti-bacterial activity (MIC), strain BCA 14-7 ([7]; clinical isolate BCA 14-7): 0.25 µg/mL
Anti-bacterial activity (MIC), strain BCA 14-8 ([7]; clinical isolate BCA 14-8): 0.5 µg/mL
Anti-bacterial activity (MIC), strain BCA 14-10 ([7]; clinical isolate BCA 14-10): 0.2 µg/mL
Anti-bacterial activity (MIC), strain ECO+ 15-1 ([8]; clinical isolate ECO+ 15-1): 32 µg/mL
Anti-bacterial activity (MIC), strain ECO+ 15-2 ([8]; clinical isolate ECO+ 15-2): 32 µg/mL
Anti-bacterial activity (MIC), strain ECO+ 15-3 ([8]; clinical isolate ECO+ 15-3): 32 µg/mL
Anti-bacterial activity (MIC), strain ECO+ 15-4 ([8]; clinical isolate ECO+ 15-4): 32 µg/mL
Anti-bacterial activity (MIC), strain ECO− 15-1 ([8]; clinical isolate ECO− 15-1): 32 µg/mL
Anti-bacterial activity (MIC), strain ECO− 15-2 ([8]; clinical isolate ECO− 15-2): 32 µg/mL
Anti-bacterial activity (MIC), strain ECO− 15-3 ([8]; clinical isolate ECO− 15-3): 32 µg/mL
Anti-bacterial activity (MIC), strain ECO− 15-4 ([8]; clinical isolate ECO− 15-4): 32 µg/mL
Anti-bacterial activity (MIC), strain EFM 15-1 ([9]; clinical isolate EFM 15-1): 1 µg/mL
Anti-bacterial activity (MIC), strain EFM 15-2 ([9]; clinical isolate EFM 15-2): 1 µg/mL
Anti-bacterial activity (MIC), strain EFM 15-3 ([9]; clinical isolate EFM 15-3): 0.25 µg/mL
Anti-bacterial activity (MIC), strain EFM 15-4 ([9]; clinical isolate EFM 15-4): 1 µg/mL
Anti-bacterial activity (MIC), strain EFM 15-5 ([9]; clinical isolate EFM 15-5): 1 µg/mL
Anti-bacterial activity (MIC), strain EFM 15-6 ([9]; clinical isolate EFM 15-6): 1 µg/mL
HCT116 inhibition rate/% [10]: 78%
inhibition at 30 µM ([11]; Homo sapiens, MGC-803, 72 h): > 50%
Inhibition of proliferation, Gastric cancer MGC-803 ([11]; 72 hours, 30 µM): 63%
Inhibition of proliferation, Liver cancer BEL-7402 [12]: 73%
inhibition at 30 µM [13]: 30%
